Literature values as cited in paper PMC9780888, “4-Isobutylmethcathinone—A Novel Synthetic Cathinone with High In Vitro Cytotoxicity and Strong Receptor Binding Preference of Enantiomers” (Pharmaceuticals, 2022).

Columns and labels:
[1] = system: neuronal differentiated SH-SY5Y cells; set-up: method as in PMID 25624004; details: 24-h exposure, ToxiLight BioAssay ref 30; cited from earlier work
HTR2A = system: HTR2A; set-up: method as in PMID 22897747; details: cited from earlier work
HTR receptor = system: HTR receptor; set-up: method as in PMID 22897747; details: cited from earlier work
SH-SY5Y cells = system: SH-SY5Y cells; set-up: method as in PMID 31473217; details: 24 h of exposure ref 20; cited from earlier work
SERT = details: S- versus R-enantiomer, 13 in b3; cited from earlier work
[2] = system: DAR2-like family receptors vs DAR1-like family of receptors; details: cited from earlier work

CCCC(C(=O)c1ccccc1)N1CCCC1 (stereo not drawn) [alpha-PVP]
reported value for mitochondrial dysfunction [1]: above 100 mM

CNC(C)C(=O)c1ccccc1 (stereo not drawn) [methcathinone]
HTR2A-binding activity (HTR2A): has been previously described

CNC(C)C(=O)c1ccc(F)cc1 (stereo not drawn) [flephedrone]
HTR2A-binding activity (HTR2A): has been previously described

CNC(C)C(=O)c1ccc(C)cc1 (stereo not drawn) [mephedrone]
HTR2A-binding activity (HTR2A): has been previously described

CCNC(C)Cc1ccc2c(c1)OCO2 (stereo not drawn) [MDEA, 3,4-methylenedioxy-N-ethylamphetamine]
HTR receptor binding activity (HTR receptor): has not been demonstrated

CNC(C)C(=O)c1ccc(C)c(C)c1 (stereo not drawn) [3,4-DMMC]
IC50 (SH-SY5Y cells): > 1 mM

CN[C@@H](C)C(=O)c1ccc(C)cc1 [S-mephedrone]
potency as SERT releaser relative to R-mephedrone (SERT): 40 times

CNC(C)Cc1ccc2c(c1)OCO2 (stereo not drawn) [MDMA, 3,4-methylenedioxymethamphetamine]
HTR receptor binding activity (HTR receptor): has not been demonstrated

NCCc1ccc(O)c(O)c1 [DA, dopamine]
affinity of DAR2-like family receptors relative to DAR1-like family [2]: 10-100 fold
